Toxic doses and inconclusive results are not listed. Square brackets hold non-standard residues; d marks the D form. Peptide text beside a SMILES is read from it. ξ: configuration not given here. ξF = NC(Cc1ccccc1)C(=O)O
Test system: BDF1 mice, B16 melanoma ip, median survival T/C
Assay: NCI In Vivo Anticancer Drug Screen. Data for tumor model B16 Melanoma (intraperitoneal) in B6D2F1 (BDF1) mice
Conditions: endpoint: median survival time, higher = longer survival
How it was run: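 Transplantable tumor model; survival or tumor size measured; reported as T/C, treated over vehicle control.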

[1] = dose: 4.0 mg/kg/injection, schedule: Q01DX009 (ip), vehicle: saline sonified
[2] = dose: 8.0 mg/kg/injection, schedule: Q01DX009 (ip), vehicle: saline sonified

## CC[n+]1c(-c2ccccc2)c2cc(N)ccc2c2ccc(N)cc21
dose: 0.75 mg/kg/injection, schedule: Q01DX009 (ip), vehicle: water
  T/C: 98 % of control
dose: 1.0 mg/kg/injection, schedule: Q01DX009 (ip), vehicle: saline
  T/C: 95 % of control
dose: 1.5 mg/kg/injection, schedule: Q01DX009 (ip), vehicle: water
  T/C: 106 % of control
dose: 1.56 mg/kg/injection, schedule: Q01DX009 (ip), vehicle: saline
  T/C: 105 % of control
dose: 2.0 mg/kg/injection, schedule: Q01DX009 (ip), vehicle: saline
  T/C: 95 % of control
dose: 3.0 mg/kg/injection, schedule: Q01DX009 (ip), vehicle: water
  T/C: 108 % of control
dose: 3.12 mg/kg/injection, schedule: Q01DX009 (ip), vehicle: saline
  T/C: 158 % of control
[1]
  T/C: 120 % of control
dose: 4.0 mg/kg/injection, schedule: Q01DX009 (ip), vehicle: saline
  T/C: 108 % of control
dose: 6.0 mg/kg/injection, schedule: Q01DX009 (ip), vehicle: water
  T/C: 112 % of control
[2]
  T/C: 115 % of control
dose: 8.0 mg/kg/injection, schedule: Q01DX009 (ip), vehicle: saline
  T/C: 108 % of control

## COc1ccc(NC(=O)Nc2ccc(Cl)cc2C)cc1
dose: 100.0 mg/kg/injection, schedule: Q01DX009 (sc), vehicle: olive oil, sesame oil, peanut oil
  T/C: 101 % of control
dose: 200.0 mg/kg/injection, schedule: Q01DX009 (sc), vehicle: olive oil, sesame oil, peanut oil
  T/C: 111 % of control
dose: 400.0 mg/kg/injection, schedule: Q01DX009 (sc), vehicle: olive oil, sesame oil, peanut oil
  T/C: 103 % of control

## CCNC(=O)Nc1ccc(C)cc1C
dose: 100.0 mg/kg/injection, schedule: Q04DX003 (ip), vehicle: Klucel (hydroxypropylcellulose) (HPC)
  T/C: 106 % of control
dose: 200.0 mg/kg/injection, schedule: Q04DX003 (ip), vehicle: Klucel (hydroxypropylcellulose) (HPC)
  T/C: 96 % of control
dose: 400.0 mg/kg/injection, schedule: Q04DX003 (ip), vehicle: Klucel (hydroxypropylcellulose) (HPC)
  T/C: 106 % of control

## N=C(N)SCc1ccc(CSC(=N)N)s1
dose: 7.5 mg/kg/injection, schedule: Q01DX009 (ip), vehicle: saline
  T/C: 101 % of control
dose: 15.0 mg/kg/injection, schedule: Q01DX009 (ip), vehicle: saline
  T/C: 99 % of control
dose: 30.0 mg/kg/injection, schedule: Q01DX009 (ip), vehicle: saline
  T/C: 104 % of control

## NCC(=O)NCC(=O)NC(Cc1ccccc1)C(=O)O (stereo not drawn) (H-Gly-Gly-[ξF]-OH)
dose: 100.0 mg/kg/injection, schedule: Q01DX009 (ip), vehicle: saline
  T/C: 90 % of control
dose: 100.0 mg/kg/injection, schedule: Q04DX003 (ip), vehicle: saline
  T/C: 92 % of control
dose: 200.0 mg/kg/injection, schedule: Q01DX009 (ip), vehicle: saline
  T/C: 90 % of control
dose: 200.0 mg/kg/injection, schedule: Q04DX003 (ip), vehicle: saline
  T/C: 97 % of control
dose: 400.0 mg/kg/injection, schedule: Q01DX009 (ip), vehicle: saline
  T/C: 93 % of control
dose: 400.0 mg/kg/injection, schedule: Q04DX003 (ip), vehicle: saline
  T/C: 90 % of control

## CSc1nc(N)nc2c1ncn2C1OC(CO)C(O)C1O (stereo not drawn)
dose: 100.0 mg/kg/injection, schedule: Q01DX009 (ip), vehicle: suspension in saline
  T/C: 115 % of control
dose: 200.0 mg/kg/injection, schedule: Q01DX009 (ip), vehicle: suspension in saline
  T/C: 110 % of control

## CCCCCCCCCCCC[S+](C)C
dose: 2.0 mg/kg/injection, schedule: Q01DX009 (ip), vehicle: saline sonified
  T/C: 89 % of control
[1]
  T/C: 102 % of control
dose: 5.0 mg/kg/injection, schedule: Q01DX009 (ip), vehicle: Klucel (hydroxypropylcellulose) (HPC)
  T/C: 97 % of control
[2]
  T/C: 107 % of control
dose: 10.0 mg/kg/injection, schedule: Q01DX009 (ip), vehicle: Klucel (hydroxypropylcellulose) (HPC)
  T/C: 100 % of control
dose: 16.0 mg/kg/injection, schedule: Q01DX009 (ip), vehicle: saline sonified
  T/C: 100 % of control
dose: 20.0 mg/kg/injection, schedule: Q01DX009 (ip), vehicle: Klucel (hydroxypropylcellulose) (HPC)
  T/C: 88 % of control

## N#CSCc1ccccc1Cl
dose: 1.56 mg/kg/injection, schedule: Q04DX003 (ip), vehicle: saline
  T/C: 89 % of control
dose: 3.13 mg/kg/injection, schedule: Q01DX009 (ip), vehicle: saline with Tween-80
  T/C: 105 % of control
dose: 3.13 mg/kg/injection, schedule: Q04DX003 (ip), vehicle: saline
  T/C: 89 % of control
dose: 6.25 mg/kg/injection, schedule: Q01DX009 (ip), vehicle: saline with Tween-80
  T/C: 105 % of control
dose: 6.25 mg/kg/injection, schedule: Q04DX003 (ip), vehicle: saline with Tween-80
  T/C: 88 % of control
dose: 6.25 mg/kg/injection, schedule: Q04DX003 (ip), vehicle: saline
  T/C: 86 % of control
dose: 12.5 mg/kg/injection, schedule: Q01DX009 (ip), vehicle: saline with Tween-80
  T/C: 114 % of control

— PubChem BioAssay AID192 (DTP/NCI, 2004)
